Test [1] addresses T1, Replicase polyprotein 1ab (Severe acute respiratory syndrome coronavirus 2, UniProt P0DTD1). The test can be described thus: SARS-CoV-2 Coronavirus 3C Protease FRET Assay. As to the method:
IC50 values were calculated by fitting a curve of Vmax to experimental values with the controls (DMSO) as the top and bottom limits of the curve. […] GraphPad Prism is the analysis tool for all measurements.

For test [2], the target named is T1, Replicase polyprotein 1ab. The test can be described thus: SARS-CoV-2 in Vero E6.

The values below come from BindingDB's records for patent WO2022021841 (Sichuan University, 2022).

pEC50, pKi: −log10 of the molar value.

As for `COc1ccc(OCC(=O)N2C[C@@H]3CCC[C@@H]3C2C(=O)N[C@H](C=O)C[C@@H]2CCNC2=O)cc1` (some centres undefined) [WO2022021841, 17], the negative logarithm of the Ki (pKi) (in general, −log10 of the Ki, conventionally taken in molar units) in test [1] was 7.70. Moreover, the pEC50 (usually −log10 of the EC50, conventionally taken in molar units) in test [2] was 4.61. The matching figures for `O=C[C@H](C[C@@H]1CCNC1=O)NC(=O)C1[C@H]2CCC[C@H]2CN1C(=O)CCc1cc(F)cc(F)c1` (some centres undefined) [WO2022021841, 19]: 7.96 and 5.25. Take `COc1ccc(OCC(=O)N2C[C@H]3[C@@H](C2C(=O)N[C@H](C=O)C[C@@H]2CCNC2=O)C3(C)C)cc1OC` (some centres undefined) [WO2022021841, 20]: in test [1], the pKi was 7.92. Also, the negative-log EC50 (pEC50) in test [2] is 5.76.

As for `Cc1cc(Cl)ccc1OCC(=O)N1C[C@@H]2CCC[C@H]2C1C(=O)N[C@H](C=O)C[C@@H]1CCNC1=O` (some centres undefined) [WO2022021841, 24], the negative-log Ki (pKi) in test [1] was 7.66. In test [2], this compound gave a pEC50 of 5.82. With `O=C[C@H](C[C@@H]1CCNC1=O)NC(=O)C1[C@@H]2CCC[C@H]2CN1C(=O)COc1ccc(Cl)cc1` (some centres undefined) [WO2022021841, 26], the negative logarithm of the Ki (pKi) in test [1] was 8.05. Besides, the pEC50 in test [2] was 6.17.

In the case of `CC1(C)[C@@H]2C(C(=O)N[C@H](C=O)C[C@@H]3CCNC3=O)N(C(=O)COc3ccc4ccccc4c3)C[C@@H]21` (some centres undefined) [WO2022021841, 27], the pKi in test [1] was 7.27. This compound gave a pEC50 in test [2] of 5.90.

`COc1ccc(OCC(=O)N2C[C@H]3[C@@H](C2C(=O)N[C@H](C=O)C[C@@H]2CCNC2=O)C3(C)C)cc1F` (some centres undefined) [WO2022021841, 28] gave a pKi in test [1] of 7.33. This compound also showed a pEC50 in test [2] of 5.33. With `CC1(C)[C@@H]2C(C(=O)N[C@H](C=O)C[C@@H]3CCNC3=O)N(C(=O)COc3ccc(Cl)c(Br)c3)C[C@@H]21` (some centres undefined) [WO2022021841, 30], the negative logarithm of the Ki (pKi) in test [1] was 7.85. This compound also had a pEC50 in test [2] of 5.94. In test [1], `CC1(C)[C@@H]2C(C(=O)N[C@H](C=O)C[C@@H]3CCNC3=O)N(C(=O)COc3ccc(Br)cc3Cl)C[C@@H]21` (some centres undefined) [WO2022021841, 31] had a negative logarithm of the Ki (pKi) of 7.82. For the same compound, the pEC50 in test [2] is 5.93. Taken in the same sequence, the figures for `CC1(C)[C@@H]2C(C(=O)N[C@H](C=O)C[C@@H]3CCNC3=O)N(C(=O)COc3ccc(F)c(F)c3)C[C@@H]21` (some centres undefined) [WO2022021841, 33] were 7.89 and 5.25.

`CC1(C)[C@@H]2C(C(=O)N[C@H](C=O)C[C@@H]3CCNC3=O)N(C(=O)COc3cc(F)cc(F)c3)C[C@@H]21` (some centres undefined) [WO2022021841, 34]: the pKi in test [1] was 7.70. Besides, the negative logarithm of the EC50 (pEC50) in test [2] is 5.81.

In turn, `CC1(C)[C@@H]2C(C(=O)N[C@H](C=O)C[C@@H]3CCNC3=O)N(C(=O)CCc3cccc(F)c3)C[C@@H]21` (some centres undefined) [WO2022021841, 36] had a pKi in test [1] of 7.80. The pEC50 in test [2] was 5.65. Taken in the same sequence, the figures for `O=C[C@H](C[C@@H]1CCNC1=O)NC(=O)C1[C@@H]2CCC[C@H]2CN1C(=O)CCc1cccc(F)c1` (some centres undefined) [WO2022021841, 37] were 8.15 and 5.53. Consider `CC1(C)[C@@H]2C(C(=O)N[C@H](C=O)C[C@@H]3CCNC3=O)N(C(=O)COc3ccc(Cl)cc3)C[C@@H]21` (some centres undefined) [WO2022021841, 43], for which the pKi in test [1] was 8.05. For the same compound, in test [2], the pEC50 was 6.28.

For `CC1(C)[C@@H]2C(C(=O)N[C@H](C=O)C[C@@H]3CCNC3=O)N(C(=O)COc3ccc(Cl)cc3Cl)C[C@@H]21` (some centres undefined) [WO2022021841, 44], the pKi in test [1] is 8.00. In test [2], the negative-log EC50 (pEC50) was 6.18. Turning to `O=C[C@H](C[C@@H]1CCNC1=O)NC(=O)C1[C@@H]2CCC[C@H]2CN1C(=O)COc1ccc(Cl)c(Cl)c1` (some centres undefined) [WO2022021841, 45], the pKi in test [1] is 7.72. In test [2], this compound had a negative logarithm of the EC50 (pEC50) of 6.08. Consider `O=C[C@H](C[C@@H]1CCNC1=O)NC(=O)C1[C@@H]2CCC[C@H]2CN1C(=S)NCc1cccc(F)c1` (some centres undefined) [WO2022021841, 59], for which the pKi in test [1] was 7.43. For `CC(C)(C)C(NC(=O)Cc1ccc(Cl)cc1Cl)C(=O)N1C[C@@H]2CCC[C@H]2C1C(=O)N[C@H](C=O)C[C@@H]1CCNC1=O` (some centres undefined) [WO2022021841, 60], the pKi in test [1] was 7.48. With `CC(C)(C)C(NCc1ccc(Cl)cc1Cl)C(=O)N1C[C@@H]2CCC[C@H]2C1C(=O)N[C@H](C=O)C[C@@H]1CCNC1=O` (some centres undefined) [WO2022021841, 61], the negative logarithm of the Ki (pKi) in test [1] was 7.41. Turning to `CC(C)(OCc1ccc(F)cc1F)C(=O)N1C[C@@H]2CCC[C@H]2C1C(=O)N[C@H](C=O)C[C@@H]1CCNC1=O` (some centres undefined) [WO2022021841, 62], in test [1], the negative logarithm of the Ki (pKi) was 7.40. Same read-out and setting: the value for `CC(C)(CCc1ccc(Cl)c(F)c1)C(=O)N1C[C@@H]2CCC[C@H]2C1C(=O)N[C@H](C=O)C[C@@H]1CCNC1=O` (some centres undefined) [WO2022021841, 63] was 7.59; that for `O=C[C@H](C[C@@H]1CCNC1=O)NC(=O)C1[C@@H]2CCC[C@H]2CN1C(=O)CCc1cc(Cl)cc(Cl)c1` (some centres undefined) [WO2022021841, 64] was 7.48. For the compound `O=C[C@H](C[C@@H]1CCNC1=O)NC(=O)C1[C@@H]2CCC[C@H]2CN1C(=O)CCc1ccc(Cl)cc1` (some centres undefined) [WO2022021841, 65], the negative logarithm of the Ki (pKi) in test [1] is 7.36.

In the case of `O=C[C@H](C[C@@H]1CCNC1=O)NC(=O)C1[C@@H]2CCC[C@H]2CN1C(=O)CCc1cccc(Cl)c1` (some centres undefined) [WO2022021841, 66], in test [1], the pKi is 7.44. On the same count and under the same terms, then `O=C[C@H](C[C@@H]1CCNC1=O)NC(=O)C1[C@@H]2CCC[C@H]2CN1C(=O)CCc1ccc(Cl)cc1Cl` (some centres undefined) [WO2022021841, 67], with 7.40; and `O=C[C@H](C[C@@H]1CCNC1=O)NC(=O)C1[C@@H]2CCC[C@H]2CN1C(=O)CCc1ccc(Cl)c(Cl)c1` (some centres undefined) [WO2022021841, 68], with 7.46. As to `CC(Oc1ccc(Cl)cc1Cl)C(=O)N1C[C@@H]2CCC[C@H]2C1C(=O)N[C@H](C=O)C[C@@H]1CCNC1=O` (some centres undefined) [WO2022021841, 69], the pKi in test [1] is 6.97. On the same count and under the same terms, the value for `O=C[C@H](C[C@@H]1CCNC1=O)NC(=O)C1[C@@H]2CCC[C@H]2CN1C(=O)/C=C/c1ccc(Cl)cc1Cl` (some centres undefined) [WO2022021841, 70] was 7.09; that for `O=C[C@H](C[C@@H]1CCNC1=O)NC(=O)C1[C@@H]2CCC[C@H]2CN1C(=O)C(F)(F)Oc1ccc(Cl)cc1Cl` (some centres undefined) [WO2022021841, 71] was 7.40. The compound `O=C[C@H](C[C@@H]1CCNC1=O)NC(=O)C1[C@@H]2CCC[C@H]2CN1C(=O)C(F)Oc1ccc(Cl)cc1Cl` (some centres undefined) [WO2022021841, 72] gave a pKi in test [1] of 7.51.

Take `O=C[C@H](C[C@@H]1CCNC1=O)NC(=O)C1[C@@H]2CCC[C@H]2CN1C(=O)CCc1cccc(O)c1` (some centres undefined) [WO2022021841, 73]: the pKi in test [1] was 7.51. On the same count and under the same terms, the value for `O=C[C@H](C[C@@H]1CCNC1=O)NC(=O)C1[C@@H]2CCC[C@H]2CN1C(=O)CCc1ccc(O)cc1` (some centres undefined) [WO2022021841, 74] was 7.29. On the same count and under the same terms, the value for `O=C[C@H](C[C@@H]1CCNC1=O)NC(=O)C1[C@@H]2CCC[C@H]2CN1C(=O)CCc1ccc(O)c(O)c1` (some centres undefined) [WO2022021841, 75] was 7.39; that for `COc1ccc(CCC(=O)N2C[C@@H]3CCC[C@H]3C2C(=O)N[C@H](C=O)C[C@@H]2CCNC2=O)cc1` (some centres undefined) [WO2022021841, 76] was 7.29.

In test [1], `COc1ccc(CCC(=O)N2C[C@@H]3CCC[C@H]3C2C(=O)N[C@H](C=O)C[C@@H]2CCNC2=O)c(Cl)c1` (some centres undefined) [WO2022021841, 77] showed a pKi of 7.25. On the same count and under the same terms, then `COc1cccc(CCC(=O)N2C[C@@H]3CCC[C@H]3C2C(=O)N[C@H](C=O)C[C@@H]2CCNC2=O)c1` (some centres undefined) [WO2022021841, 78], with 7.17; and `CC1CNC(=O)[C@@H]1C[C@H](NC(=O)C1[C@H]2[C@H](CN1C(=O)COc1ccc(OC(F)(F)F)cc1)C2(C)C)C(=O)CF` (some centres undefined) [WO2022021841, 79], with 7.19. Consider `CC1CNC(=O)[C@@H]1C[C@H](NC(=O)C1[C@@H]2CCC[C@H]2CN1C(=O)COc1ccc(OC(F)(F)F)cc1)C(=O)CF` (some centres undefined) [WO2022021841, 80], for which the pKi in test [1] is 7.64.
